Values joined by “and” are separate entries in the source; they are usually repeats but may differ in a detail not shown here. Equal values may be shown once. “Also recorded” adds a separate entry of the source. Read-outs that look alike come from different tables or passages of the source.
Key:
[1] = PK evaluation in CD-1 mice (plasma and tissue concentrations); format: in vivo
Experimental: The primary stock solutions of 4k and phenacetin (internal standard, IS) were prepared in methanol at a concentration of 1.0 mg/mL. Working solutions of calibration standards and quality control (QC) samples were prepared by dilution with methanol and stored at −20° C. A working stock of the IS solution (20 ng/mL) was prepared in methanol and stored at −20° C.
Chromatography was performed on an Acquity™ UPLC system (Waters Corp, Milford, MA, USA) with an autosampler temperature at 10° C. Waters Acquity UPLC® HSS C18 column (3.0×50 mm, 1.8 μm particle size) was used for chromatographic separation with linear gradient elution consisting of (A) 90% acetonitrile and (B) 10% 0.2% formic acid in Milli-Q water as mobile phases. The flow rate was set at 0.30 mL/min, and the injection volume was 2 μL.
An Acquity Tandem Quadrupole Mass Detector (Xevo TQ-S; Waters Corp, Milford, MA, USA) in positive electrospray ionization mode was used for mass spectrometric detection. For collision-induced dissociation, argon was used as collision gas. The cone voltage and collision energy were set at 60 V and 34 V for 4k and 46 V and 26 V for the IS, respectively. Quantification was performed using the monitoring of multiple reaction monitoring (MRM) of following transitions: m/z 409.0/220.9 for 4k and m/z 180.0/92.7 for IS. Retention times of 4k and IS were 2.85 and 1.81 min, respectively.
A simple protein precipitation method was followed for extraction of 4k from mice plasma. To an aliquot of 50 μL of plasma or tissue (brain, liver, or kidney) samples, IS solution (5 μL of 20 ng/mL) was added and mixed for 15 s on a cyclomixer (Thermo Scientific, Indianapolis, IN, USA). After precipitation with 200 μL of acetonitrile, the mixture was vortexed for 2 min, followed by centrifugation for 10 min at 14,000 rpm on an accuSpin Micro 17R (Fisher Scientific, Suwanee, GA, USA) at 5° C. An aliquot of ˜150 μL of clear supernatant was transferred into vials and 2 μL was injected onto LC-MS/MS system for analysis.
Male CD-1 mice (N=48) were obtained from Envigo (St. Louis, MO, USA) and maintained on a 12:12 h reversed dark/light cycle (lights off at 07:00 h) with ad libitum access to food and water. Following a ˜4 h fast, animals were randomly assigned to one of two groups. Group I and II animals (n=24/group, weight range 25-30 g) received compound 4k (5 mg/kg) orally (in the form of a solution, prepared using 10% absolute alcohol, 10% cremophor, and 80% Milli-Q water) or intravenously (i.v., using solution formulation comprising 10% absolute alcohol, 10% cremophor, and 80% normal saline), respectively. At 0.5, 1, 2, 4, 8, and 24 h post administration, animals were euthanized, blood was collected in K2. EDTA-containing polypropylene tubes and, tissues were collected (brain, liver, and kidney). Plasma was harvested by centrifuging the blood using Eppendorf 5430R Centrifuge (Germany) at 5000 rpm for 5 min and stored frozen at −80° C. until analysis.
Brain, liver, and kidney tissues were homogenized in separate 15 mL round-bottom screw-capped vials in phosphate buffered saline (5 volumes of each tissue mass) with a homogenizer (Polytron®) and stored at −80° C. until analysis. Plasma or tissue homogenates (50 μL) were spiked with IS and processed as mentioned in sample preparation section.
Plasma and tissue concentration and time data of compound 4k were analyzed by a non-compartmental method using WinNonlin Version 5.3 (Pharsight Corporation, Mountain View, CA, USA).

[2] = test system: mice; assay: Conditioned place preference test; format: in vivo; conditions: FIG. 4
Source text: Conditioned place preference testing is used to assess a compound's rewarding effects in order to gauge potential abuse liability. Mice are “conditioned” to associate distinctly lighted/colored/textured chambers with a rewarding drug (e.g., opioid) or no drug. If the mice sense a rewarding effect of the drug, they will prefer to occupy the chamber associated with that drug. FIG. 4 presents the results of a conditioned place preference test for 3 groups of mice (i.e., vehicle, oxycodone treated, and compound 4k treated).

[3] = Stability studies under physiological pH; format: physicochemical; conditions: 4k compared to 4q; data not reported
[4] = male, CD-1, mouse, intravenous 5 mg/kg, brain
[5] = male, CD-1, mouse, intravenous 5 mg/kg, kidney
[6] = male, CD-1, mouse, intravenous 5 mg/kg, liver
[7] = male, CD-1, mouse, intravenous 5 mg/kg, plasma
[8] = male, CD-1, mouse, oral 5 mg/kg, brain
[9] = male, CD-1, mouse, oral 5 mg/kg, kidney
[10] = male, CD-1, mouse, oral 5 mg/kg, liver
[11] = male, CD-1, mouse, oral 5 mg/kg, plasma

## O=C1c2ccc(Cl)cc2N/C(=N/N=C/c2cc3ccccc3s2)[C@@H]2CCCN12 [Compound 4k]
[1]; intravenous 5 mg/kg, brain
  AUC0-∞: 5685 ng·h/g
[1]; intravenous 5 mg/kg, kidney
  AUC0-∞: 13272 ng·h/g
[1]; intravenous 5 mg/kg, liver
  AUC0-∞: 19991 ng·h/g
[1]; intravenous 5 mg/kg, plasma
  clearance as share of hepatic blood flow in mice: 26%
[1]; [4]
  clearance: 15.7 ± 2.31 mL/min/kg
  half-life: 392 ± 82.8 min
[1]; [5]
  clearance: 6.38 ± 0.49 mL/min/kg
  half-life: 612 ± 29.4 min
[1]; [6]
  clearance: 4.28 ± 0.38 mL/min/kg
  half-life: 556 ± 40.2 min
[1]; [7]
  Vd: 14.3 ± 3.11 L/kg
  clearance: 23.5 ± 5.35 mL/min/kg
  half-life: 415 ± 9 min
[1]; male, CD-1, mouse, intravenous 5 mg/kg, plasma, read-out: Cmax Or C0
  Cmax: 4340 ng/mL
[1]; [8]
  Tmax: 75 ± 26.4 min
  half-life: 1370 ± 224 min
[1]; male, CD-1, mouse, oral 5 mg/kg, brain, read-out: Cmax
  Cmax: 602 ± 44.8 ng/g
[1]; male, CD-1, mouse, oral 5 mg/kg, brain, read-out: F (apparent oral bioavailability)
  bioavailability: 43%
[1]; [9]
  Tmax: 45 ± 9 min
  half-life: 1000 ± 96.6 min
[1]; male, CD-1, mouse, oral 5 mg/kg, kidney, read-out: Cmax
  Cmax: 795 ± 22.6 ng/g
[1]; male, CD-1, mouse, oral 5 mg/kg, kidney, read-out: F (apparent oral bioavailability)
  bioavailability: 37 ± 3.78%
[1]; [10]
  Tmax: 45 ± 9 min
  half-life: 780 ± 58.2 min
[1]; male, CD-1, mouse, oral 5 mg/kg, liver, read-out: Cmax
  Cmax: 1890 ± 282 ng/g
[1]; male, CD-1, mouse, oral 5 mg/kg, liver, read-out: F (apparent oral bioavailability)
  bioavailability: 32 ± 2.86%
[1]; [11]
  AUC(0-inf): 739 ± 6.75 ng·h/mL
  Tmax: 52.8 ± 7.8 min
  half-life: 984 ± 99.6 min
[1]; male, CD-1, mouse, oral 5 mg/kg, plasma, read-out: Cmax
  Cmax: 198 ± 11.5 ng/mL
[1]; male, CD-1, mouse, oral 5 mg/kg, plasma, read-out: F (bioavailability)
  bioavailability: 18 ± 2.43%
[1]; oral 5 mg/kg, kidney
  AUC0-∞: 5223 ± 44.75 ng·h/g and 5223 ng·h/g
[1]; oral 5 mg/kg, liver
  AUC0-∞: 6423 ± 571 ng·h/g and 6423 ng·h/g
[2]
  place preference (rewarding effect, abuse liability): no significant rewarding effects; also recorded: no such preference
[3]
  tolerance under physiological pH: better tolerance

Source: patent publication US20230303581A1, “ORALLY BIOAVAILABLE, BRAIN-PENETRANT COMPOUND WITH SELECTIVITY FOR THE CANNABINOID TYPE 2 RECEPTOR WITH POTENTIAL USE TOWARDS VISCERAL PAIN MANAGEMENT AND NEURODEGENERATIVE DISORDERS” (University of Mississippi, priority 2022, published 2023)
